In patent publication US8410302B2, “Methoxyimino compounds and fungicide composition comprising same” (Kyung Nong Corporation, priority 2007, dated 2013):
Like-named read-outs stand apart in the source and are kept apart here.

Key:
[1] = tested on: Pyricularia oryzae Carvara KA301; assay: whole plant or invertebrate; type: in vivo; conditions: for pest or weed control at 2 ppm / pest or weed control at 10 ppm / pest or weed control at 50 ppm / pest or weed control at 100 ppm: Pyricularia oryzae, read-out: RCB control value (C.V.); for RCB control value (C.V.): rice blast
[2] = tested on: Rhizoctonia solani AG-1; assay: Fungicidal activity against rice sheath blight (RSB) disease, control value; conditions: for pest or weed control at 2 ppm / pest or weed control at 10 ppm / pest or weed control at 50 ppm / pest or weed control at 100 ppm: Rhizoctonia solani, AG1, in Oryza sativa, read-out: RSB control value (C.V.); for RSB control value (C.V.): rice sheath blight
[3] = tested on: Botrytis cinerae; assay: Fungicidal activity against cucumber gray mold rot (CGM) disease, control value; type: in vivo; conditions: 100 ppm; for pest or weed control at 100 ppm: Botrytis, read-out: CGM control value (C.V.)
[4] = tested on: Phytophthora infestans; assay: whole plant or invertebrate; type: in vivo; conditions: for pest or weed control at 50 ppm / pest or weed control at 100 ppm / pest or weed control at 2 ppm / pest or weed control at 10 ppm: Phytophthora infestans, in Solanum lycopersicum, read-out: TLB control value (C.V.); for TLB control value (C.V.): tomato late blight
[5] = tested on: Erysiphae graminis; assay: Fungicidal activity against barley powdery mildew (BPM) disease, control value; type: in vivo; conditions: for pest or weed control at 2 ppm / pest or weed control at 10 ppm / pest or weed control at 50 ppm / pest or weed control at 100 ppm: 168 h, read-out: BPM control value (C.V.)
[6] = tested on: Puccinia recondita; assay: Fungicidal activity against wheat leaf rust (WLR) disease, control value; type: in vivo; conditions: for pest or weed control at 2 ppm / pest or weed control at 10 ppm / pest or weed control at 50 ppm / pest or weed control at 100 ppm: read-out: WLR control value (C.V.)
[7] = Hordeum vulgare, 2 ppm, barley powdery mildew
[8] = Hordeum vulgare, 10 ppm, barley powdery mildew
[9] = Hordeum vulgare, 50 ppm, barley powdery mildew
[10] = Hordeum vulgare, 100 ppm, barley powdery mildew

## CNC(=O)/C(=N/OC)c1ccccc1COc1ccc(C=C(Cl)Cl)cc1C [Example 42, (E)-2-(2-((4-(2,2-dichlorovinyl)-2-methylphenoxy)methyl)phenyl)-2-methoxyimino-N-methylacetamide]
[1]
  pest or weed control at 2 ppm: 100%
  pest or weed control at 10 ppm: 100%
  pest or weed control at 50 ppm: 100%
  pest or weed control at 100 ppm: 100%
[2]
  pest or weed control at 2 ppm: 100%
  pest or weed control at 10 ppm: 100%
  pest or weed control at 50 ppm: 100%
  pest or weed control at 100 ppm: 100%
[3]; cucumber gray mold rot
  pest or weed control at 100 ppm: 0%
[4]
  pest or weed control at 50 ppm: 70%
  pest or weed control at 100 ppm: 95%
[5]; [7]
  pest or weed control at 2 ppm: 100%
[5]; [8]
  pest or weed control at 10 ppm: 100%
[5]; [9]
  pest or weed control at 50 ppm: 100%
[5]; [10]
  pest or weed control at 100 ppm: 100%
[6]; 2 ppm, wheat leaf rust
  pest or weed control at 2 ppm: 100%
[6]; 10 ppm, wheat leaf rust
  pest or weed control at 10 ppm: 100%
[6]; 50 ppm, wheat leaf rust
  pest or weed control at 50 ppm: 100%
[6]; 100 ppm, wheat leaf rust
  pest or weed control at 100 ppm: 100%

## CNC(=O)/C(=N/OC)c1ccccc1COc1ccc(C=C(Cl)Cl)c(Cl)c1 [Example 58, (E)-2-(2-((3-chloro-4-(2,2-dichlorovinyl)phenoxy)methyl)phenyl)-2-methoxyimino-N-methylacetamide]
[1]
  pest or weed control at 2 ppm: 100%
  pest or weed control at 10 ppm: 100%
  pest or weed control at 50 ppm: 100%
  pest or weed control at 100 ppm: 100%
[2]
  pest or weed control at 2 ppm: 90%
  pest or weed control at 10 ppm: 100%
  pest or weed control at 50 ppm: 100%
  pest or weed control at 100 ppm: 100%
[3]
  pest or weed control at 100 ppm: 35%
[4]
  pest or weed control at 2 ppm: 99%
  pest or weed control at 10 ppm: 100%
  pest or weed control at 50 ppm: 100%
  pest or weed control at 100 ppm: 100%
[5]; 2 ppm
  pest or weed control at 2 ppm: 100%
[5]; 10 ppm
  pest or weed control at 10 ppm: 100%
[5]; 50 ppm
  pest or weed control at 50 ppm: 100%
[5]; 100 ppm
  pest or weed control at 100 ppm: 100%
[6]; Puccinia recondita, 2 ppm
  pest or weed control at 2 ppm: 100%
[6]; Puccinia recondita, 10 ppm
  pest or weed control at 10 ppm: 100%
[6]; Puccinia recondita, 50 ppm
  pest or weed control at 50 ppm: 100%
[6]; Puccinia recondita, 100 ppm
  pest or weed control at 100 ppm: 100%

## CNC(=O)/C(=N/OC)c1ccccc1COc1cccc(C=C(Br)Br)c1 [Example 6, (E)-2-(2-((3-(2,2-dibromovinyl)phenoxy)methyl)phenyl)-2-methoxyimino-N-methylacetamide]
[1]
  pest or weed control at 2 ppm: 98%
  pest or weed control at 10 ppm: 100%
  pest or weed control at 50 ppm: 100%
  pest or weed control at 100 ppm: 100%
[2]
  pest or weed control at 2 ppm: 30%
  pest or weed control at 10 ppm: 90%
  pest or weed control at 50 ppm: 100%
  pest or weed control at 100 ppm: 100%
[3]; cucumber gray mold rot
  pest or weed control at 100 ppm: 60%
[4]
  pest or weed control at 100 ppm: 50%
[5]; [7]
  pest or weed control at 2 ppm: 0%
[5]; [8]
  pest or weed control at 10 ppm: 30%
[5]; [9]
  pest or weed control at 50 ppm: 90%
[5]; [10]
  pest or weed control at 100 ppm: 97%
[6]; 2 ppm, wheat leaf rust
  pest or weed control at 2 ppm: 0%
[6]; 10 ppm, wheat leaf rust
  pest or weed control at 10 ppm: 35%
[6]; 50 ppm, wheat leaf rust
  pest or weed control at 50 ppm: 95%
[6]; 100 ppm, wheat leaf rust
  pest or weed control at 100 ppm: 98%

## CO/N=C(/C(=O)OC)c1ccccc1CON=C(C)c1ccc(C=C(F)F)cc1 [Example 29, methyl-(E)-2-[[[[[2-[4-(2,2-difluorovinyl)phenyl](1-methyl)methylidene]amino]oxy]methyl]phenyl]-2-methoxyiminoacetate]
[1]; 2 ppm
  RCB control value (C.V.): 100%
[1]; 10 ppm
  RCB control value (C.V.): 100%
[1]; 50 ppm
  RCB control value (C.V.): 100%
[1]; 100 ppm
  RCB control value (C.V.): 100%
[2]; 100 ppm
  RSB control value (C.V.): 30%
[3]; cucumber gray mold rot
  CGM control value (C.V.): 24%
[4]; 2 ppm
  TLB control value (C.V.): 100%
[4]; 10 ppm
  TLB control value (C.V.): 100%
[4]; 50 ppm
  TLB control value (C.V.): 100%
[4]; 100 ppm
  TLB control value (C.V.): 100%
[5]; 2 ppm, barley powdery mildew
  BPM control value (C.V.): 15%
[5]; 10 ppm, barley powdery mildew
  BPM control value (C.V.): 60%
[5]; 50 ppm, barley powdery mildew
  BPM control value (C.V.): 93%
[5]; 100 ppm, barley powdery mildew
  BPM control value (C.V.): 100%
[6]; 2 ppm, wheat leaf rust
  WLR control value (C.V.): 100%
[6]; 10 ppm, wheat leaf rust
  WLR control value (C.V.): 100%
[6]; 50 ppm, wheat leaf rust
  WLR control value (C.V.): 100%
[6]; 100 ppm, wheat leaf rust
  WLR control value (C.V.): 100%

## CNC(=O)/C(=N/OC)c1ccccc1COc1ccc(C=C(F)Cl)cc1 [Example 14, (2E)-2-(2-((4-(2-chloro-2-difluorovinyl)phenoxy)methyl)phenyl)-2-methoxyimino-N-methylacetamide]
[1]; 50 ppm
  RCB control value (C.V.): 90%
[1]; 100 ppm
  RCB control value (C.V.): 95%
[2]; 100 ppm
  RSB control value (C.V.): 15%
[3]; cucumber gray mold rot
  CGM control value (C.V.): 40%
[4]; 50 ppm
  TLB control value (C.V.): 35%
[4]; 100 ppm
  TLB control value (C.V.): 98%
[5]; 100 ppm, barley powdery mildew
  BPM control value (C.V.): 60%
[6]; 100 ppm, wheat leaf rust
  WLR control value (C.V.): 72%

## CNC(=O)/C(=N/OC)c1ccccc1CON=C(C)c1cccc(C=C(Cl)Br)c1 [Example 36, (E)-2-[[[[[2-[3-(2-bromo-2-chlorovinyl)phenyl](1-methyl)methylidene]amino]oxy]methyl]phenyl]-2-methoxyimino-N-methylacetamide]
[1]; 2 ppm
  RCB control value (C.V.): 100%
[1]; 10 ppm
  RCB control value (C.V.): 100%
[1]; 50 ppm
  RCB control value (C.V.): 100%
[1]; 100 ppm
  RCB control value (C.V.): 100%
[2]; 2 ppm
  RSB control value (C.V.): 67%
[2]; 10 ppm
  RSB control value (C.V.): 90%
[2]; 50 ppm
  RSB control value (C.V.): 98%
[2]; 100 ppm
  RSB control value (C.V.): 100%
[3]; cucumber gray mold rot
  CGM control value (C.V.): 65%
[4]; 2 ppm
  TLB control value (C.V.): 30%
[4]; 10 ppm
  TLB control value (C.V.): 80%
[4]; 50 ppm
  TLB control value (C.V.): 100%
[4]; 100 ppm
  TLB control value (C.V.): 100%
[5]; 2 ppm, barley powdery mildew
  BPM control value (C.V.): 100%
[5]; 10 ppm, barley powdery mildew
  BPM control value (C.V.): 100%
[5]; 50 ppm, barley powdery mildew
  BPM control value (C.V.): 100%
[5]; 100 ppm, barley powdery mildew
  BPM control value (C.V.): 100%
[6]; 2 ppm, wheat leaf rust
  WLR control value (C.V.): 100%
[6]; 10 ppm, wheat leaf rust
  WLR control value (C.V.): 100%
[6]; 50 ppm, wheat leaf rust
  WLR control value (C.V.): 100%
[6]; 100 ppm, wheat leaf rust
  WLR control value (C.V.): 100%

## CNC(=O)/C(=N/OC)c1ccccc1COc1cccc(C=C(Cl)Cl)c1Cl [Example 44, (E)-2-(2-((2-chloro-3-(2,2-dichlorovinyl)phenoxy)methyl)phenyl)-2-methoxyimino-N-methylacetamide]
[1]
  pest or weed control at 2 ppm: 100%
  pest or weed control at 10 ppm: 100%
  pest or weed control at 50 ppm: 100%
  pest or weed control at 100 ppm: 100%
[2]
  pest or weed control at 2 ppm: 90%
  pest or weed control at 10 ppm: 100%
  pest or weed control at 50 ppm: 100%
  pest or weed control at 100 ppm: 100%
[3]; cucumber gray mold rot
  pest or weed control at 100 ppm: 10%
[4]
  pest or weed control at 2 ppm: 95%
  pest or weed control at 10 ppm: 100%
  pest or weed control at 50 ppm: 100%
  pest or weed control at 100 ppm: 100%
[5]; [7]
  pest or weed control at 2 ppm: 100%
[5]; [8]
  pest or weed control at 10 ppm: 100%
[5]; [9]
  pest or weed control at 50 ppm: 100%
[5]; [10]
  pest or weed control at 100 ppm: 100%
[6]; 2 ppm, wheat leaf rust
  pest or weed control at 2 ppm: 100%
[6]; 10 ppm, wheat leaf rust
  pest or weed control at 10 ppm: 100%
[6]; 50 ppm, wheat leaf rust
  pest or weed control at 50 ppm: 100%
[6]; 100 ppm, wheat leaf rust
  pest or weed control at 100 ppm: 100%

## CNC(=O)/C(=N/OC)c1ccccc1COc1c(C)cccc1C=C(Br)Br [Example 74, (E)-2-(2-((2-(2,2-dibromovinyl)-6-methylphenoxy)methyl)phenyl)-2-methoxyimino-N-methylacetamide]
[1]
  pest or weed control at 2 ppm: 10%
  pest or weed control at 10 ppm: 90%
  pest or weed control at 50 ppm: 100%
  pest or weed control at 100 ppm: 100%
[2]
  pest or weed control at 2 ppm: 67%
  pest or weed control at 10 ppm: 80%
  pest or weed control at 50 ppm: 90%
  pest or weed control at 100 ppm: 100%
[3]
  pest or weed control at 100 ppm: 35%
[4]
  pest or weed control at 10 ppm: 80%
  pest or weed control at 50 ppm: 90%
  pest or weed control at 100 ppm: 100%
[5]; 2 ppm
  pest or weed control at 2 ppm: 92%
[5]; 10 ppm
  pest or weed control at 10 ppm: 100%
[5]; 50 ppm
  pest or weed control at 50 ppm: 100%
[5]; 100 ppm
  pest or weed control at 100 ppm: 100%
[6]; Puccinia recondita, 2 ppm
  pest or weed control at 2 ppm: 90%
[6]; Puccinia recondita, 10 ppm
  pest or weed control at 10 ppm: 99%
[6]; Puccinia recondita, 50 ppm
  pest or weed control at 50 ppm: 100%
[6]; Puccinia recondita, 100 ppm
  pest or weed control at 100 ppm: 100%

## CO/N=C(/C(=O)OC)c1ccccc1COc1cc(C=C(Cl)Cl)ccc1OC [Example 47, methyl-(E)-2-(2-((5-(2,2-dichlorovinyl)-2-methoxyphenoxy)methyl)phenyl)-2-methoxyiminoacetate]
[1]
  pest or weed control at 2 ppm: 80%
  pest or weed control at 10 ppm: 99%
  pest or weed control at 50 ppm: 100%
  pest or weed control at 100 ppm: 100%
[2]
  pest or weed control at 2 ppm: 95%
  pest or weed control at 10 ppm: 100%
  pest or weed control at 50 ppm: 100%
  pest or weed control at 100 ppm: 100%
[3]; cucumber gray mold rot
  pest or weed control at 100 ppm: 55%
[4]
  pest or weed control at 2 ppm: 85%
  pest or weed control at 10 ppm: 95%
  pest or weed control at 50 ppm: 100%
  pest or weed control at 100 ppm: 100%
[5]; [7]
  pest or weed control at 2 ppm: 100%
[5]; [8]
  pest or weed control at 10 ppm: 100%
[5]; [9]
  pest or weed control at 50 ppm: 100%
[5]; [10]
  pest or weed control at 100 ppm: 100%
[6]; 2 ppm, wheat leaf rust
  pest or weed control at 2 ppm: 100%
[6]; 10 ppm, wheat leaf rust
  pest or weed control at 10 ppm: 100%
[6]; 50 ppm, wheat leaf rust
  pest or weed control at 50 ppm: 100%
[6]; 100 ppm, wheat leaf rust
  pest or weed control at 100 ppm: 100%
